One block for each compound: values may come before it.
Experiments:
[1] = molecular target: T1, Bromodomain-containing protein 9 (Homo sapiens, UniProt Q9H8M2); assay: Selectivity interaction (ITC measurement) EUB0000233b BRD9
T1 sequence (Q9H8M2 whole entry): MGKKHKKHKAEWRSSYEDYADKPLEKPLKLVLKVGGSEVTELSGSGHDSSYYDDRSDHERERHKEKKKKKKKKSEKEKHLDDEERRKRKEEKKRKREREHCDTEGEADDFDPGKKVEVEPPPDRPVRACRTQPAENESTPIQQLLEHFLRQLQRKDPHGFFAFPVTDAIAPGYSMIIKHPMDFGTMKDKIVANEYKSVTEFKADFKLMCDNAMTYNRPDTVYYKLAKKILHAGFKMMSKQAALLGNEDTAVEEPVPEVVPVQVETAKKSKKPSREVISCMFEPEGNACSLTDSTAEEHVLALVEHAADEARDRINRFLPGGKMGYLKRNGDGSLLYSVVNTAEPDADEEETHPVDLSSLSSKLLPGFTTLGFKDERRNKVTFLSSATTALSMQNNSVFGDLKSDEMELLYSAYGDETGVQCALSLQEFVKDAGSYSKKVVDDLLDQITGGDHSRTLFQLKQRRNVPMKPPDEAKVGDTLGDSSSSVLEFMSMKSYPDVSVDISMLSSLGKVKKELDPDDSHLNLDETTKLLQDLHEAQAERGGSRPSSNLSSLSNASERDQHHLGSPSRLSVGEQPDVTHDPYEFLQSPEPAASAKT

[2] = molecular target: DNA (cytosine-5)-methyltransferase 3A (Homo sapiens) (UniProt Q9Y6K1); assay: Selectivity interaction (Methyltransferase screen (radiometric assays, panel of 8 PRMTs, 21 protein lysine methyltransferases, 3 DNA methyltransferases, and one RNA methyltransferase)) EUB0000272b DNMT3A
DNA (cytosine-5)-methyltransferase 3A (Homo sapiens), sequence (Q9Y6K1 whole entry, looked up): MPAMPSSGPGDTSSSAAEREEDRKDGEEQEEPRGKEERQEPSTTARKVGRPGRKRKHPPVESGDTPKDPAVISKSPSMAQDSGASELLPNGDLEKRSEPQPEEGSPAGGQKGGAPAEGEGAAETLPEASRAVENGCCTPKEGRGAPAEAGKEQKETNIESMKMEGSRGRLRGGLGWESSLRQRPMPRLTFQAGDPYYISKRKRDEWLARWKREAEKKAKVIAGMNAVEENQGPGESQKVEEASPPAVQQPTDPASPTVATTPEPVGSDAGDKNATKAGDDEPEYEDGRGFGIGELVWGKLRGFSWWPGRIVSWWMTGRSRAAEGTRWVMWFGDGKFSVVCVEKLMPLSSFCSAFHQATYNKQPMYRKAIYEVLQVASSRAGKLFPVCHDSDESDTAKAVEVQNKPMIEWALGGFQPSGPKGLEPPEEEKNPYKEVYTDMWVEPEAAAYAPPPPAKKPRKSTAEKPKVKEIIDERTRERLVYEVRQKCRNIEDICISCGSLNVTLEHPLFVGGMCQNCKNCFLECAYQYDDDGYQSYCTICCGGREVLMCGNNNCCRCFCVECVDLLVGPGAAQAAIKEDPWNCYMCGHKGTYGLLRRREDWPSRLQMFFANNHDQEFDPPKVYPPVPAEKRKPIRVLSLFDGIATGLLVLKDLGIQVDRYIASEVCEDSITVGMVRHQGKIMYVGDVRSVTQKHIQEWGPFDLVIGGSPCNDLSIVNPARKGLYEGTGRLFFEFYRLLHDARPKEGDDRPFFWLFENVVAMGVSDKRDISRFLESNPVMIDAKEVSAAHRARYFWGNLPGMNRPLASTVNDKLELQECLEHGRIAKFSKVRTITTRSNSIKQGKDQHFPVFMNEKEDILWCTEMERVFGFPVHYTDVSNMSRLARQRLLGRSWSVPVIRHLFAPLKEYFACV

[3] = molecular target: Serine/threonine-protein kinase PAK 4 (Homo sapiens, UniProt O96013); assay: Selectivity interaction (ProQinase) EUB0000171b PAK4
Serine/threonine-protein kinase PAK 4, sequence (O96013 whole entry, looked up): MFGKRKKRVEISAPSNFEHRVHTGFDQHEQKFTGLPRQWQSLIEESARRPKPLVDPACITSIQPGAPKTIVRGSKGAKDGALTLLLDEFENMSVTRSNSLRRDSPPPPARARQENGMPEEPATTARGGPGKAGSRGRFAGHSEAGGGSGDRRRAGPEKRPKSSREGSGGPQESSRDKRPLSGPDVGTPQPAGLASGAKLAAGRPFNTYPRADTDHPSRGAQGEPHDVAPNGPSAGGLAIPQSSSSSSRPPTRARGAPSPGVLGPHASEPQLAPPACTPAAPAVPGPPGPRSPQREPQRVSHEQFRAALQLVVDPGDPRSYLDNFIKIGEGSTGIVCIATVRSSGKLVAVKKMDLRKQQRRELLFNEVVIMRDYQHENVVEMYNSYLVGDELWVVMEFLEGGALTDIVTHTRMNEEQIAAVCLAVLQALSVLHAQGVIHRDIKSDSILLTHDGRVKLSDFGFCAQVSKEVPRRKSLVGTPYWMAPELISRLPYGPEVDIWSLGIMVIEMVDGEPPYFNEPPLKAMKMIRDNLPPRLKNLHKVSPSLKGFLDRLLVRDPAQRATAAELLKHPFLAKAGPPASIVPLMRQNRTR

[4] = molecular target: Microtubule-associated serine/threonine-protein kinase 1 (Homo sapiens) (UniProt Q9Y2H9); assay: Selectivity interaction (KinomeScan (DiscoverX)) EUB0000695a MAST1; conditions: at 100 nM
Microtubule-associated serine/threonine-protein kinase 1 (Homo sapiens), sequence (Q9Y2H9 whole entry, looked up): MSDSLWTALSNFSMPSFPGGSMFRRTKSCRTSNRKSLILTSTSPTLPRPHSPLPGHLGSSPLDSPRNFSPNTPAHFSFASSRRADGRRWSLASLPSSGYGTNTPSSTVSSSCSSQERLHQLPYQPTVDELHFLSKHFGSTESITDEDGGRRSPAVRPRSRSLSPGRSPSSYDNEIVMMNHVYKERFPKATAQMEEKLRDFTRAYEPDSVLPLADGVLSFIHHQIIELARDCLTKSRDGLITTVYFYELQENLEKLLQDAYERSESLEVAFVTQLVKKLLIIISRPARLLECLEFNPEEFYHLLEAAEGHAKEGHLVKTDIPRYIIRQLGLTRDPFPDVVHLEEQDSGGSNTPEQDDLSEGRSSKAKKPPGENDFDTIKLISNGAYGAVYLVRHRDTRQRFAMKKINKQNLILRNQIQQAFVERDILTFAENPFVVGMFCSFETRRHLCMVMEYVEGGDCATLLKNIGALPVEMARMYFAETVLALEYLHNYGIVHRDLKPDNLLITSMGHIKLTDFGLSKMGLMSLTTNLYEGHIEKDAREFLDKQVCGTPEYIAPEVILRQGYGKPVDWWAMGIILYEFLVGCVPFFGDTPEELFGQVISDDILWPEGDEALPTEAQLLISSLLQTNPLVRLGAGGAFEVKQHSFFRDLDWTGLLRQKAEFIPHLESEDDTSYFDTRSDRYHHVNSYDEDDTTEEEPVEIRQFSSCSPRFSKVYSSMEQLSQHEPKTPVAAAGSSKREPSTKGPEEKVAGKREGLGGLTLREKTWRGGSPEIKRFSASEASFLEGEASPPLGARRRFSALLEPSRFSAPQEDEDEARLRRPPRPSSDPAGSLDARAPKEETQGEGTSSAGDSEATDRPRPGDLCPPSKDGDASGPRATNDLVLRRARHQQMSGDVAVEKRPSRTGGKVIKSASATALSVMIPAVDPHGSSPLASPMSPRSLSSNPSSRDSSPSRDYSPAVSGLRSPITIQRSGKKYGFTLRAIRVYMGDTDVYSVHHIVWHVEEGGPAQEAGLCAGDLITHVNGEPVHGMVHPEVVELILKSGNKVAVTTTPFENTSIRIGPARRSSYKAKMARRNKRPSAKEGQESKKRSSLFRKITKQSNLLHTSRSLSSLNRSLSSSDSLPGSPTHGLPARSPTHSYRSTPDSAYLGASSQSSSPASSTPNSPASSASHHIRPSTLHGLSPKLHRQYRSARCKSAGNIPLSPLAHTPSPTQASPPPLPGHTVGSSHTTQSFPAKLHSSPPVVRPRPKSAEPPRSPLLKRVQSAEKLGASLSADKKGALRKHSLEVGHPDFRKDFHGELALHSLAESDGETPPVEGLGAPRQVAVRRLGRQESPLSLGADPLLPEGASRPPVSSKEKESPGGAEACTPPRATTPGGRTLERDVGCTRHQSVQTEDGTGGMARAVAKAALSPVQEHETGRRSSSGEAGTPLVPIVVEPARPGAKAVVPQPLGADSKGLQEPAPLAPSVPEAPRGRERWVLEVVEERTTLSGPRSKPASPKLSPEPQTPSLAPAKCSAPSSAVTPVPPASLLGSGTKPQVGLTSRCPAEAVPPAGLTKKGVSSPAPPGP

[5] = molecular target: T2, Myosin-IIIb (Homo sapiens) (UniProt Q8WXR4); assay: Selectivity interaction (KinomeScan (DiscoverX)) EUB0001049a MYO3B; conditions: at 1 µM
T2 sequence (whole entry): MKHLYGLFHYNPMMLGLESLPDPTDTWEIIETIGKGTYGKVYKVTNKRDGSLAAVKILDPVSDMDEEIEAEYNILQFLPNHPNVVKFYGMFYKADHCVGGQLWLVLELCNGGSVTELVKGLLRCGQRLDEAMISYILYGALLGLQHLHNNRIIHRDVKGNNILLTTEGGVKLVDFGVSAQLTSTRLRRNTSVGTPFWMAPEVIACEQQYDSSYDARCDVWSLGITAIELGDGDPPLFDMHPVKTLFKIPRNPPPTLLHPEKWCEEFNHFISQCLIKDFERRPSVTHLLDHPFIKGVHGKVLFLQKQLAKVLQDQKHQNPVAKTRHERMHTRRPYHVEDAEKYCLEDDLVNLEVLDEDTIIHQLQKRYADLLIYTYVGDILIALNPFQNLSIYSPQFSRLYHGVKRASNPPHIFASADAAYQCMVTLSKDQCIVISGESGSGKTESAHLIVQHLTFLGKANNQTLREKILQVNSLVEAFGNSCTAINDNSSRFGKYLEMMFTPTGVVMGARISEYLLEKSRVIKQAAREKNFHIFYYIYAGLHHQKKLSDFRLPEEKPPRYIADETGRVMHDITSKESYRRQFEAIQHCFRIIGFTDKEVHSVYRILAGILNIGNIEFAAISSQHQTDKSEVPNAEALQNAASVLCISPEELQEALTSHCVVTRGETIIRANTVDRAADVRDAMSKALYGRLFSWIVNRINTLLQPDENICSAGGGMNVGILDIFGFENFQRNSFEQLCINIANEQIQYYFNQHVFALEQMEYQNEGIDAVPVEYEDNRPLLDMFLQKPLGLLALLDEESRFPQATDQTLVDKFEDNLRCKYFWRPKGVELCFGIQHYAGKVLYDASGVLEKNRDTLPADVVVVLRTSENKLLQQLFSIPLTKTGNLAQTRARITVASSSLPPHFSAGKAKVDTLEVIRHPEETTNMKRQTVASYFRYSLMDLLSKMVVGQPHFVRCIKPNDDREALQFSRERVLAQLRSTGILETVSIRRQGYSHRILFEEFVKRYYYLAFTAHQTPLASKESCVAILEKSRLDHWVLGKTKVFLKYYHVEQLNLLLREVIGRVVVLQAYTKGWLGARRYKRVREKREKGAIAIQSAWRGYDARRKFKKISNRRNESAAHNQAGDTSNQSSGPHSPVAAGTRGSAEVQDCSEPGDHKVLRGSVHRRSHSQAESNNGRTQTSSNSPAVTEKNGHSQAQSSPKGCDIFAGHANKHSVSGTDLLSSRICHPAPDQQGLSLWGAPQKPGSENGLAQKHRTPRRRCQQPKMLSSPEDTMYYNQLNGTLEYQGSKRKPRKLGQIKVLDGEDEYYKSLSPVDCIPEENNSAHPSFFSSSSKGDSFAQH

[6] = molecular target: Proto-oncogene tyrosine-protein kinase Src (Homo sapiens, UniProt P12931); assay: Selectivity interaction (ActivX KiNativ screen (ex vivo kinase selectivity in human PBMCs)) EUB0001619a SRC; format: cell-based; conditions: PBMC, at 1 µM
Proto-oncogene tyrosine-protein kinase Src, sequence (P12931 2-536 limits assumed): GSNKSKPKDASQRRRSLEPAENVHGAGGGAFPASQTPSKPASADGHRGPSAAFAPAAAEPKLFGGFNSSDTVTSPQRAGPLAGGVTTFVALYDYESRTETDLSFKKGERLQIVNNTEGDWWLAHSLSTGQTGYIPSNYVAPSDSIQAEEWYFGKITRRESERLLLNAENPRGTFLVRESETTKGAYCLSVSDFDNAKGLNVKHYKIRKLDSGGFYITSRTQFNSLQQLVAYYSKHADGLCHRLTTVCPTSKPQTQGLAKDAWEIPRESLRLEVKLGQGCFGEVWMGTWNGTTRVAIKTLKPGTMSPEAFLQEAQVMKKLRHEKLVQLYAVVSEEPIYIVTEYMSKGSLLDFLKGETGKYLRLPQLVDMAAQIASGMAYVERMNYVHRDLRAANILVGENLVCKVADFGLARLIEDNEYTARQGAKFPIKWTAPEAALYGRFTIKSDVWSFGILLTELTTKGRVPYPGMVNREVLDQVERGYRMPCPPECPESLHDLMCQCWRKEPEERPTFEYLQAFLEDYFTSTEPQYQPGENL

Kd [1]: 1100 nM
Structure (SMILES): CN(C)CCCOc1ccc(-c2cc(NCCCn3cccn3)nc(S(C)(=O)=O)n2)cc1

% of activity ([2]; at 1 µM): 98.3%
% of activity ([2]; at 10 µM): 93%
Structure (SMILES): Cc1cc(C)cc([C@H]2c3cc(C)ccc3NC(=O)CN2C(=O)c2ccc(Br)s2)c1

% of control ([3]; at 1 µM): 92%
% of control ([3]; at 5 µM): 76%
Structure (SMILES): C=CC(=O)Nc1cccc(C(=O)Nc2ccc(Nc3cc(-c4[nH]c(SC)nc4C)ccn3)cc2)c1

The remaining lines, values behind:

Structure (SMILES): Cc1cc(F)c(C(=O)Nc2cccc(-c3nncn3C(C)C)n2)cc1-n1cnc(C2CC2)c1
% of control [4]: 87%

Structure (SMILES): COc1cc(Nc2nc(C)cc(-c3cnn4nc(OC)ccc34)n2)cc(C(F)(F)F)c1
% of control [5]: 100%

Structure (SMILES): N#Cc1cccc(-c2c[nH]c3ncnc(N4CCOCC4)c23)c1
% of inhibition [6]: -2%

From ChEMBL document CHEMBL5465560, “Selectivity Literature for EUbOPEN Chemogenomic Library” (2024)
